Results on four molecules are retold here after BindingDB's records for doi:10.1016/j.bmcl.2018.08.039 (National Institutes of Health, 2018).

This test concerns the target Bromodomain-containing protein 4 (Homo sapiens, UniProt O60885). Briefly: Displacement of biotinylated acetylated peptide from recombinant human partial length BRD4 long isoform bromodomain 1/2 (N44 to E460 residues) expressed in Escherichia coli BL21 measured after 1 hr by Bromoscan method.
With `Cc1noc(C)c1-c1ccc2nc(-n3cc(CCO)cn3)nc(NCc3cccc(Cl)c3)c2c1`, the Kd came to 140 nM. `Cc1noc(C)c1-c1ccc2nc(Cl)nc(NCc3cccc(Cl)c3)c2c1`: the Kd came out at 980 nM. For `Cc1noc(C)c1-c1ccc2nc(-c3ccc(CO)nc3)nc(NCc3cccc(Cl)c3)c2c1` the value was 250 nM; for `CNc1nc(NCc2cccc(Cl)c2)c2cc(-c3c(C)noc3C)ccc2n1`, 2900 nM.

As a reminder, the Kd is the constant that tells how readily two partners part at equilibrium.
